# Measured values reported in PubChem BioAssay AID330 (DTP/NCI, 2004).
# Where “and” joins values, the source holds several entries; their conditions need not be identical. Identical values can stand only once. Inconclusive results and toxic doses are left out.
# System: P388 leukemia ip, CD2F1 mice, survival T/C
# Assay: NCI In Vivo Anticancer Drug Screen. Data for tumor model P388 Leukemia (intraperitoneal) in CD2F1 (CDF1) mice
# Conditions: endpoint: median survival time, higher = longer survival
# Summary of the method: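 Mice carrying the transplanted tumor received test compound or vehicle. Survival was recorded in each group, and the value is the treated-group measurement divided by that of the vehicle-treated control group.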
# [1] = dose: 50.0 mg/kg/injection, schedule: Q01DX009 (ip), vehicle: Klucel (hydroxypropylcellulose) (HPC)
# [2] = dose: 50.0 mg/kg/injection, schedule: Q01DX009 (ip), vehicle: saline with Tween-80
# [3] = dose: 100.0 mg/kg/injection, schedule: Q01DX009 (ip), vehicle: saline with Tween-80
# [4] = dose: 200.0 mg/kg/injection, schedule: Q01DX009 (ip), vehicle: saline with Tween-80
# [5] = dose: 60.0 mg/kg/injection, schedule: Q01DX005 (ip), vehicle: saline with Tween-80
# [6] = dose: 120.0 mg/kg/injection, schedule: Q01DX005 (ip), vehicle: saline with Tween-80
# [7] = dose: 12.5 mg/kg/injection, schedule: Q01DX009 (ip), vehicle: saline
# [8] = dose: 50.0 mg/kg/injection, schedule: Q04DX003 (ip), vehicle: saline
# [9] = dose: 50.0 mg/kg/injection, schedule: Q01DX005 (ip), vehicle: Klucel (hydroxypropylcellulose) (HPC)
# [10] = dose: 100.0 mg/kg/injection, schedule: Q01DX005 (ip), vehicle: Klucel (hydroxypropylcellulose) (HPC)
# [11] = dose: 200.0 mg/kg/injection, schedule: Q01DX005 (ip), vehicle: Klucel (hydroxypropylcellulose) (HPC)
# [12] = dose: 12.5 mg/kg/injection, schedule: Q01DX009 (ip), vehicle: saline with Tween-80
# [13] = dose: 12.5 mg/kg/injection, schedule: Q01DX005 (ip), vehicle: Klucel (hydroxypropylcellulose) (HPC)
# [14] = dose: 25.0 mg/kg/injection, schedule: Q01DX009 (ip), vehicle: saline with Tween-80
structure (smiles),measurement,setting,value
CCCN(C)N=Nc1ccccc1C(=O)O,T/C,"dose: 3.12 mg/kg/injection, schedule: Q01DX009 (ip), vehicle: Klucel (hydroxypropylcellulose) (HPC)",111 % of control
same,T/C,"dose: 6.25 mg/kg/injection, schedule: Q01DX009 (ip), vehicle: Klucel (hydroxypropylcellulose) (HPC)",91 % of control
same,T/C,"dose: 12.5 mg/kg/injection, schedule: Q01DX009 (ip), vehicle: Klucel (hydroxypropylcellulose) (HPC)",110 % of control
same,T/C,"dose: 25.0 mg/kg/injection, schedule: Q01DX009 (ip), vehicle: Klucel (hydroxypropylcellulose) (HPC)",110 % of control
same,T/C,[1],105 % of control
CC(=O)[O][Sn]([c]1ccccc1)([c]1ccccc1)[c]1ccccc1,T/C,"dose: 0.25 mg/kg/injection, schedule: Q04DX003 (ip), vehicle: saline with Tween-80",104 % of control
same,T/C,"dose: 0.5 mg/kg/injection, schedule: Q04DX003 (ip), vehicle: saline with Tween-80",109 % of control
same,T/C,"dose: 125.0 micrograms/kg/injection, schedule: Q01DX009 (ip), vehicle: saline with Tween-80",100 % of control
same,T/C,"dose: 250.0 micrograms/kg/injection, schedule: Q01DX009 (ip), vehicle: saline with Tween-80",109 % of control
same,T/C,"dose: 500.0 micrograms/kg/injection, schedule: Q01DX009 (ip), vehicle: saline with Tween-80",109 % of control
CC(C)=NOc1ccccc1[N+](=O)[O-],T/C,[2],111 % of control
same,T/C,[3],101 % of control
same,T/C,[4],93 % of control
CCC(c1ccc(OC)cc1)C(NC(=S)Nc1cccc(C)c1)c1ccc(OC)cc1 (stereo not drawn),T/C,"dose: 100.0 mg/kg/injection, schedule: Q01DX001 (ip), vehicle: saline with Tween-80",90 % of control
same,T/C,"dose: 200.0 mg/kg/injection, schedule: Q01DX001 (ip), vehicle: saline with Tween-80",92 % of control
same,T/C,"dose: 400.0 mg/kg/injection, schedule: Q01DX001 (ip), vehicle: saline with Tween-80",93 % of control
COc1ccc(C(C)(C)c2cc3c(cc2OC)OCO3)cc1,T/C,[5],104 % of control
same,T/C,[6],116 % of control
[CH3][Ge]([CH3])([Cl])[c]1cc[c]([Ge]([CH3])([CH3])[Cl])cc1,T/C,"dose: 3.12 mg/kg/injection, schedule: Q01DX009 (ip), vehicle: saline",96 % of control
same,T/C,"dose: 6.25 mg/kg/injection, schedule: Q01DX009 (ip), vehicle: saline",94 % of control
same,T/C,[7],113 % of control and 92 % of control
same,T/C,"dose: 50.0 mg/kg/injection, schedule: Q01DX009 (ip), vehicle: saline",110 % of control
same,T/C,[8],118 % of control
same,T/C,"dose: 100.0 mg/kg/injection, schedule: Q04DX003 (ip), vehicle: saline",89 % of control
CC(C)(C)/C(=N\Nc1ccc([N+](=O)[O-])cc1[N+](=O)[O-])c1ccccc1,T/C,"dose: 3.13 mg/kg/injection, schedule: Q01DX001 (ip), vehicle: saline with Tween-80",91 % of control
same,T/C,"dose: 6.25 mg/kg/injection, schedule: Q01DX001 (ip), vehicle: saline with Tween-80",116 % of control
same,T/C,"dose: 12.5 mg/kg/injection, schedule: Q01DX001 (ip), vehicle: saline with Tween-80",95 % of control
O=C(Nc1nc2ccccc2s1)Nc1ccc([N+](=O)[O-])cc1Cl,T/C,[9],98 % of control
same,T/C,[10],94 % of control
same,T/C,[11],90 % of control
CC(C)C(NC(=O)C(Cl)Cl)C(=O)O (stereo not drawn),T/C,[9],96 % of control
same,T/C,[10],94 % of control
same,T/C,[11],96 % of control
CC1=C(C)CC2C(=O)c3c(c(O)c4ccccc4c3Cl)C(=O)C2C1 (stereo not drawn),T/C,"dose: 50.0 mg/kg/injection, schedule: Q01DX001 (ip), vehicle: Klucel (hydroxypropylcellulose) (HPC)",90 % of control
same,T/C,"dose: 100.0 mg/kg/injection, schedule: Q01DX001 (ip), vehicle: Klucel (hydroxypropylcellulose) (HPC)",89 % of control
same,T/C,"dose: 200.0 mg/kg/injection, schedule: Q01DX001 (ip), vehicle: Klucel (hydroxypropylcellulose) (HPC)",86 % of control and 90 % of control
same,T/C,"dose: 400.0 mg/kg/injection, schedule: Q01DX001 (ip), vehicle: Klucel (hydroxypropylcellulose) (HPC)",92 % of control
O=P(N1CC1)(N1CC1)N1CC2CCC(CC2)C1,T/C,"dose: 3.13 mg/kg/injection, schedule: Q01DX009 (ip), vehicle: saline with Tween-80",109 % of control
same,T/C,"dose: 6.25 mg/kg/injection, schedule: Q01DX009 (ip), vehicle: saline with Tween-80",154 % of control
same,T/C,[12],204 % of control
same,T/C,[7],159 % of control
same,T/C,"dose: 12.5 mg/kg/injection, schedule: Q04DX003 (ip), vehicle: saline",120 % of control
same,T/C,"dose: 25.0 mg/kg/injection, schedule: Q01DX009 (ip), vehicle: saline",118 % of control
same,T/C,"dose: 25.0 mg/kg/injection, schedule: Q04DX003 (ip), vehicle: saline",166 % of control
same,T/C,[8],154 % of control
COc1ccc(NC(=O)C2C(=O)N(c3ccc(OC)cc3)C(=O)/C2=N/N=C(N)N)cc1 (stereo not drawn),T/C,"dose: 25.0 mg/kg/injection, schedule: Q04DX002 (ip), vehicle: saline with Tween-80",99 % of control
same,T/C,"dose: 50.0 mg/kg/injection, schedule: Q04DX002 (ip), vehicle: saline with Tween-80",101 % of control
same,T/C,"dose: 100.0 mg/kg/injection, schedule: Q04DX002 (ip), vehicle: saline with Tween-80",98 % of control and 101 % of control
c1ccc(-c2nc(N3CCN(c4ccco4)CC3)c3c4c(sc3n2)CCC4)cc1,T/C,[13],97 % of control
same,T/C,"dose: 25.0 mg/kg/injection, schedule: Q01DX005 (ip), vehicle: Klucel (hydroxypropylcellulose) (HPC)",90 % of control
same,T/C,[9],90 % of control and 91 % of control
COC(=O)C(C)(OC)SC (stereo not drawn),T/C,[5],106 % of control
same,T/C,[6],100 % of control
same,T/C,"dose: 240.0 mg/kg/injection, schedule: Q01DX005 (ip), vehicle: saline with Tween-80",98 % of control
CCOP(=O)(O)SP(=O)(O)OCC.[Zn+2],T/C,[14],109 % of control
same,T/C,[2],103 % of control and 115 % of control
CCCCCCCCCCCCCCC1(C(=O)OC)CO1 (stereo not drawn),T/C,"dose: 6.25 mg/kg/injection, schedule: Q01DX005 (ip), vehicle: Klucel (hydroxypropylcellulose) (HPC)",94 % of control
same,T/C,[13],94 % of control
same,T/C,[9],102 % of control
Nc1cc2c(=O)c3cc(Cl)cc(Cl)c3[nH]c2c2c1C(=O)c1ccccc1C2=O,T/C,[1],99 % of control
same,T/C,"dose: 100.0 mg/kg/injection, schedule: Q01DX009 (ip), vehicle: Klucel (hydroxypropylcellulose) (HPC)",105 % of control
same,T/C,"dose: 200.0 mg/kg/injection, schedule: Q01DX009 (ip), vehicle: Klucel (hydroxypropylcellulose) (HPC)",100 % of control
O=c1n(-c2ccccc2)c(=O)n2n1CC(c1ccccc1)=N2,T/C,"dose: 100.0 mg/kg/injection, schedule: Q01DX009 (ip), vehicle: other",99 % of control
same,T/C,"dose: 200.0 mg/kg/injection, schedule: Q01DX009 (ip), vehicle: other",91 % of control
same,T/C,"dose: 400.0 mg/kg/injection, schedule: Q01DX009 (ip), vehicle: other",89 % of control
C=C(C)[C@@]12OC3(/C=C/C=C/CCCCC)O[C@@H]1[C@@H]1[C@@H]4O[C@]4(CO)[C@@H](O)[C@]4(O)C(=O)C(C)=C[C@H]4[C@@]1(O3)[C@H](C)[C@H]2OC(=O)c1ccccc1,T/C,"dose: 0.1 mg/kg/injection, schedule: Q01DX009 (ip), vehicle: saline + alcohol",120 % of control
same,T/C,"dose: 1.6 mg/kg/injection, schedule: Q01DX009 (ip), vehicle: saline + alcohol",155 % of control
same,T/C,"dose: 0.8 micrograms/kg/injection, schedule: Q01DX009 (ip), vehicle: saline + alcohol",101 % of control
same,T/C,"dose: 1.6 micrograms/kg/injection, schedule: Q01DX009 (ip), vehicle: saline + alcohol",101 % of control
same,T/C,"dose: 2.3 micrograms/kg/injection, schedule: Q01DX009 (ip), vehicle: saline + alcohol",97 % of control
same,T/C,"dose: 3.1 micrograms/kg/injection, schedule: Q01DX009 (ip), vehicle: saline + alcohol",119 % of control
same,T/C,"dose: 4.7 micrograms/kg/injection, schedule: Q01DX009 (ip), vehicle: saline + alcohol",100 % of control
same,T/C,"dose: 9.4 micrograms/kg/injection, schedule: Q01DX009 (ip), vehicle: saline + alcohol",97 % of control
same,T/C,"dose: 18.8 micrograms/kg/injection, schedule: Q01DX009 (ip), vehicle: saline + alcohol",95 % of control
same,T/C,"dose: 37.5 micrograms/kg/injection, schedule: Q01DX009 (ip), vehicle: saline + alcohol",100 % of control
same,T/C,"dose: 75.0 micrograms/kg/injection, schedule: Q01DX009 (ip), vehicle: saline + alcohol",119 % of control
same,T/C,"dose: 150.0 micrograms/kg/injection, schedule: Q01DX009 (ip), vehicle: saline + alcohol",114 % of control
O=[N+]([O-])c1ccc(SC2=NCCCN2)c(Cl)c1,T/C,[2],102 % of control
same,T/C,[3],100 % of control
same,T/C,[4],105 % of control
CC(C)Cc1cn(O)c2nc(=N)nc(N)c-2n1,T/C,[12],100 % of control
same,T/C,[14],93 % of control
same,T/C,[2],101 % of control
